Source: publication PMC6770071, “XIAP as a Target of New Small Organic Natural Molecules Inducing Human Cancer Cell Death” (Cancers, 2019)
Values after ≈ are worked out from the molar mass of the structure shown. Like-named read-outs stand apart in the source and are kept apart here.

Assays:
MCF7 cells [1] = assay: MTT cell viability assay, MCF7 cells; format: cell-based, human; details: for IC50: Homo sapiens, MTT; for loss of cell viability (MTT) with simultaneous 50 µM Z-VAD-(OMe)-FMK: MCF7, 6 h, gibbilimbol B/eriopodol A 30 µg/mL, erioquinol 10 µg/mL
Method: (§1) Human U373 glioma, MCF7 breast cancer, A549 lung cancer and PC-3 prostate cancer cells were grown in Dulbecco’s Modified Eagle Medium (DMEM), supplemented with 10% foetal bovine serum, 2 mM glutamine, 100 U/mL penicillin/streptomycin, at 37 °C in a humidified atmosphere containing 5% CO2 (logarithmic growth phase, routine passages every 3 days). The human breast epithelial cell line MCF10 was cultured in DMEM/F12 Ham’s Mixture supplemented with 5% horse serum, epithelial growth factor 20 ng/mL, insulin 10 μg/mL, hydrocortisone 0.5 mg/mL, cholera toxin 100 ng/mL, and 100 U/mL penicillin/streptomycin. HUVEC were grown in EGM-2 Endothelial Cell Growth Medium-2 BulletKit (Lonza, Basel, Switzerland), according to the manufacturer’s protocol.
(§2) U373, MCF7, A549, PC-3, HUVEC, and MCF10 cell viability was determined by MTT assay using published protocols. MTT absorbance was quantified spectrophotometrically using a Glomax Multi Detection System microplate reader (Promega, Milano, Italy).
Statistical significance of raw data between the groups in each experiment was evaluated using unpaired Student’s t-test (single comparisons) or one-way ANOVA followed by the Newman-Keuls post-test (multiple comparisons). The IC50 and Emax concentration were determined by non-linear regression curve analysis of the concentration-effect responses. Potency values among concentration-response curves were compared with the F-test. Data belonging from different experiments were represented and averaged in the same graph. The GraphPad Prism software package (GraphPad Software, San Diego, CA, USA) was used. The results were expressed as means ± standard error of mean (SEM) of the indicated n values.

[2] = test system: human umbilical vein endothelial cells (HUVEC); assay: MTT cell viability assay, HUVEC; format: cell-based; details: 24 h
Method: as §1, with “HUVEC were grown in EGM-2 Endothelial Cell Growth Medium-2 BulletKit (Lonza, Basel, Switzerland), according to the manufacturer’s protocol.” left out
as §2
Statistical significance of raw data between the groups in each experiment was evaluated using unpaired Student’s t-test (single comparisons) or one-way ANOVA followed by the Newman-Keuls post-test (multiple comparisons). The IC50 and Emax concentration were determined by non-linear regression curve analysis of the concentration-effect responses. […] The results were expressed as means ± standard error of mean (SEM) of the indicated n values.

MCF7 cells [3] = assay: TUNEL assay; format: cell-based, human; details: MCF7, 12 h; gibbilimbol B/eriopodol A 30 µg/mL, erioquinol 10 µg/mL
Method: Using published protocols, MCF7 or U373 cells cultured in 120-mm coverslips were fixed in 4% paraformaldehyde in 0.1 M phosphate buffer (PB), pH 7.4, for 10 min. The TUNEL method (DeadEnd Fluorometric TUNEL System, Promega) was used to assay apoptosis, according to the manufacturer’s protocol. DAPI (nuclei detection) staining was also performed.

MCF7 cells [4] = assay: Bright field microscopy and DAPI staining of cell morphology; format: cell-based, human; details: MCF7, 6 h; for cell morphology, bright field microscopy: increasing concentrations; for nuclei, DAPI staining: gibbilimbol B/eriopodol A 30 µg/mL, erioquinol 10 µg/mL
Method: (§3) Using published protocols, MCF7 or U373 cells cultured in 120-mm coverslips were fixed in 4% paraformaldehyde in 0.1 M PB, pH 7.4, for 10 min. Cells were pre-incubated for 1 h min with 5% of normal goat serum (Life Technologies, Monza, Italy) in 0.1 M PB (pH 7.4) containing 0.1% Triton X-100, before overnight incubation with the rabbit monoclonal anti-cleaved caspase 7 (Cell Signaling Technology, Danvers, MA, USA). In double-label immunofluorescence experiments, the mouse monoclonal anti-cytochrome c primary antibody (Cell Signaling Technology) was used in conjunction with the rabbit monoclonal primary antibody directed to COX IV (Cell Signaling Technology). For fluorescence detection, coverslips were stained with the appropriate Alexa Fluor secondary antibodies (Life Technologies) and mounted on glass slides in a ProLong Gold Antifade Mountant (Life Technologies). DAPI and/or fluorescein phalloidin (cytoskeleton detection) staining was also used. Cells were analysed with a DMI4000 B automated inverted microscope equipped with a DCF310 digital camera (Leica Microsystems, Wetzlar, Germany). When indicated, confocal imaging was performed with a TCS SP8 System (Leica Microsystems). Image acquisitions were controlled by the Leica Application Suite X.

U373 cells [5] = assay: TMRM mitochondrial membrane potential analysis, U373 cells; format: cell-based, human; details: U373, increasing time; gibbilimbol B/eriopodol A 30 µg/mL, erioquinol 10 µg/mL
Method: Using published protocols, mitochondria of MCF7 and U373 cells were labeled using TMRM, a voltage-sensitive cationic lipophilic dye, partitioning and accumulating in the mitochondrial matrix based upon the Nernst equation. After treatments, cells were trypsinised, counted and incubated with 100 nM TMRM for 30 min at 37 °C. Fluorescence was measured by using a Glomax Multi Detection System microplate reader (Promega), excitation wavelength: 525 nm; emission wavelength: 580–640 nm). After background subtraction, the data were normalised on cell number.

MCF7 cells [6] = assay: Confocal co-localisation of cytochrome c with COX IV, MCF7 cells; format: cell-based, human; details: MCF7, 3 h; gibbilimbol B/eriopodol A 30 µg/mL, erioquinol 10 µg/mL
Method: as §3

U373 cells [7] = assay: Confocal co-localisation of cytochrome c with COX IV, U373 cells; format: cell-based, human; details: U373, 3 h; gibbilimbol B/eriopodol A 30 µg/mL, erioquinol 10 µg/mL
Method: as §3

MCF7 cells [8] = assay: MTT assay and cleaved-caspase 7 western blot in XIAP siRNA-transfected MCF7 cells treated with compounds; format: cell-based, human; details: MCF7, XIAP siRNA 50 nM 24 h; for toxicity (MTT absorbance) after XIAP downregulation: then 6 h, gibbilimbol B/eriopodol A 30 μg/mL, erioquinol 10 μg/mL
Method: as §2
Using published protocols, MCF7 and MCF10 cells were homogenised in RIPA lysis buffer, supplemented with a cocktail of protease inhibitors (cOmplete; Roche Diagnostics, Milano, Italy). Equal amounts of proteins were separated by 4–20% SDS-polyacrylamide gel electrophoresis (Criterion TGX Stain-free precast gels and Criterion Cell system; Bio-Rad, Hercules, CA, USA) and transferred onto nitrocellulose membrane using a Bio-Rad Trans-Blot Turbo System. When indicated, the membranes were probed using the rabbit monoclonal anti-cleaved caspase 7 and anti-XIAP (Cell Signaling Technology) primary antibodies. After the incubation with the appropriate horseradish-peroxidase-conjugated secondary antibody (Cell Signaling Technology), bands were visualised using the Clarity Western ECL substrate with a ChemiDoc MP imaging system (Bio-Rad). To monitor for potential artefacts in loading and transfer among samples in different lanes, the blots were routinely treated with the Restore Western Blot Stripping Buffer (ThermoFisher Scientific) and re-probed with the goat anti-Lactate dehydrogenase (LDH)-A (Santa Cruz Biotechnology) and the mouse anti-vinculin primary antibodies. The stain-free gel was used as loading control as well. When appropriated, bands were quantified for densitometry using the Bio-Rad Image Lab software.
Gene silencing of XIAP in MCF7 cells was performed as previously published. Briefly, according to the manufacturer’s protocol, iBONI siRNA Pool (Riboxx, Radebeul, Germany) targeting human XIAP were mixed to Lipofectamine RNAiMax transfection reagent (Life Technologies). iBONI siRNA Pool negative control (Riboxx) (scrambled targeting siRNAs) was also used. The mix was added to cultured MCF7 cells at a siRNA concentration of 50 nM for 24 h.

[9] = MCF7, 24 h (Table 1), read-out: IC50 (μg/mL) MCF7 Cells
[10] = MCF7, 6 h exposure (time-response), read-out: IC50
[11] = MCF7, 12 h exposure (time-response), read-out: IC50

Structure (SMILES)	IC50 (MCF7 cells [1]; [9])	IC50 (MCF7 cells [1]; [10])	IC50 (MCF7 cells [1]; [11])	IC50 (MCF7 cells [1]; MCF7, 24 h exposure (time-response), read-out: IC50)	loss of cell viability (MTT) with simultaneous 50 µM Z-VAD-(OMe)-FMK (MCF7 cells [1])	concentration-dependent inhibition of MTT absorbance with 50 µM necrostatin-1 and 10 µM ferrostatin-1 (MCF7 cells [1]; MCF7, 24 h, 2 h pre-treatment with inhibitors)	IC50 [2]	TUNEL staining (DNA fragmentation) (MCF7 cells [3])	cell morphology, bright field microscopy (MCF7 cells [4])	nuclei, DAPI staining (MCF7 cells [4])	TMRM fluorescence (mitochondria membrane potential) (U373 cells [5])	subcellular location of cytochrome c (MCF7 cells [6])	subcellular location of cytochrome c (U373 cells [7])	toxicity (MTT absorbance) after XIAP downregulation (MCF7 cells [8])	caspase 7 activity after XIAP silencing (MCF7 cells [8]; then 30 μg/mL for 6 h)
CCCCCC/C=C\CCC1(O)C=CC(=O)C=C1 [Erioquinol, (Z)-4-(dec-3′-enyl)-4-hydroxycyclohexa-2,5-dien-1-one]	2.63 µg/mL (≈ 10.6 µM)	14.7 µg/mL (≈ 59.3 µM)	4.25 µg/mL (≈ 17.1 µM)	1.93 µg/mL (≈ 7.77 µM)	did not affect	did not change	0.36 µg/mL (≈ 1.45 µM)	DNA fragmented cells were few	translucent cytoplasm and no overall nuclei condensation	appearence of multinucleated cells	comparable decrease in TMRM fluorescence vs. control	release of cytochrome c	release of cytochrome c	significantly enhanced the toxicity	–
CCCCCC/C=C/CCc1ccc(O)cc1 [Gibbilimbol B, (E)-4-(dec-3′-enyl)phenol]	16.4 µg/mL (≈ 70.8 µM)	20.3 µg/mL (≈ 87.4 µM)	27.4 µg/mL (≈ 118 µM)	–	significantly inhibited	–	11.5 µg/mL (≈ 49.4 µM)	inter-nucleosomal degradation of genomic DNA typical of late apoptotic cells	morphological hallmarks of apoptosis	nuclei of cells undergoing apoptosis	comparable decrease in TMRM fluorescence vs. control	release of cytochrome c	release of cytochrome c	significantly enhanced the toxicity	robustly increased
